# Structures can show the parent of a compound that is named as a salt.
# What was measured:
# Acute toxicity = conditions: mouse, in vivo; DDY male mice, oral, 0.5 % methylcellulose suspension, seven days after medication, Probit method
# Method: Acute toxicity:- • DDY strain male mice of 5 weeks old, every 10 mice being grouped, received orally the test compound in the form of 0.5 % methylcellulose suspension at a dose from five kinds increasing with a common ratio of 1.3, and observation on the death of animals was continued. Seven days after the medication, the LD50 value was calculated from the rate of death according to the Probit method.
# [1] = Liver weight increase test; type: in vivo, DDY strain male mice; conditions: mice infected with Candida albicans KB-8, survived animals
# Description: Liver weight increase test:- • Candida albicans KB-8 was intraveously injected into DDY strain male mice of 5 weeks old, every 20 animals being grouped, at a rate of […] cells per mouse. After infection, the animals were orally medicated with the test compound in the form of 0.5 % methylcellulose suspension once a day for 20 consecutive days, during which observation on the liver weight was continued.
# The average liver weight in survived animals as calculated are shown in Table 5, from which it is understood that the liver weight is not increased when the compound of the invention is given at a daily dose of not more than 4 mg/kg, while the liver weight is increased when the compound of Japanese Patent Publn. (unexamined) No. 185571/83 is given at a daily dose of not less than 1 mg/kg.
# Candida albicans KB-8 = assay: Antifungal activity test (in vivo), Candida albicans infection in mice; conditions: DDY male mice infected i.v. with 10^7 cells; oral, total dose 20 mg/kg at 0, 5, 24 and 48 hours after infection; 10 days observation; number in brackets is the non-medicated control
# Method: Antifungal activity test (in vivo):-Candida albicans KB-8 as pre-cultured at 30°C for 4 days was suspended in physiologically saline solution, and the suspension was intravenously injected into DDY strain
# male mice of 5 weeks old, every 10 animals being grouped, through the tail vein so as to inoculate a cell number of 10^7 per animal.
# (§1) The animals were orally medicated with the test compound in the form of 0.5 % methylcellulose suspension at a total dose of 20 mg per kg of the body weight 0, 5, 24 and 48 hours after the infection, and observation was continued for 10 days after the infection. The results are shown in Table 2, wherein the numeral indicates an average number of survival days of 10 animals as one group in contrast to that of the non-medicated (control) group.
# For comparison, the following compounds were also tested: [drawing 6] [drawing 7]
# [2] = test system: Aspergillus fumigatus MTU 16001; assay: Antifungal activity test (in vivo), Aspergillus fumigatus infection in mice; conditions: DDY male mice infected i.v. with 2 x 10^6 cells, oral; for Survival rate at complete death of non-medicated group (%): total dose 20 mg/kg at 0, 5, 24 and 48 hours; for Average survival day(s): total dose 20 mg/kg, 10 days observation
# Method: (§2) Antifungal activity test (in vivo):- • Aspergillus fumigatus MTU 16001 or Cryptococcus neoformans MTU 13001 as pre-cultured at 30°C for 4 days was suspended in physiologically saline solution, and the suspension was intravenously injected into DDY strain male mice of 5 weeks old (body weight, 24 - 27 g), every 10 animals being grouped, through the tail vein so as to inoculate a cell number of 2 x 10^6 per animal.
# as §1, with “3,” for “2,”
# [3] = test system: Cryptococcus neoformans MTU 13001; assay: Antifungal activity test (in vivo), Cryptococcus neoformans infection in mice; conditions: DDY male mice infected i.v. with 2 x 10^6 cells, oral; for Survival rate at complete death of non-medicated group (%): total dose 20 mg/kg at 0, 5, 24 and 48 hours; for Average survival day(s): total dose 20 mg/kg, 10 days observation
# Method: as §2
# as §1, with “3,” for “2,”
# [4] = dose 0.5 mg/kg p.o. once a day for 20 consecutive days
# [5] = dose 1.0 mg/kg p.o. once a day for 20 consecutive days
# [6] = dose 2.0 mg/kg p.o. once a day for 20 consecutive days
# [7] = dose 4.0 mg/kg p.o. once a day for 20 consecutive days
# [8] = dose 8.0 mg/kg p.o. once a day for 20 consecutive days
SMILES,LD50 at 168 h (Acute toxicity) [mg/kg],"Average weight of liver [1, 4] [g]","Average weight of liver [1, 5] [g]","Average weight of liver [1, 6] [g]","Average weight of liver [1, 7] [g]","Average weight of liver [1, 8] [g]",Average survival days (control) (Candida albicans KB-8),Survival rate at complete death of non-medicated group (%) [2] [%],Average survival day(s) [2] [s],Survival rate at complete death of non-medicated group (%) [3] [%],Average survival day(s) [3] [s]
"CCCCC[S+]([O-])CC(O)(Cn1cncn1)c1ccc(Cl)cc1Cl (single isomer, unassigned) [1A, 2-(2,4-dichlorophenyl)-3-n-pentylsulfinyl-l-(l,2,4-triazol-1-yl)propan-2-ol oxalate]",1740,1.20,1.18,1.15,1.25,1.60,9.0 (1.2) days,–,–,–,–
"CC(C)CC[S+]([O-])CC(O)(Cn1cncn1)c1ccc(Cl)cc1Cl (single isomer, unassigned) [3A]",> 2000,–,–,–,–,–,7.7 (1.2) days,–,–,–,–
"CCCC(C)[S+]([O-])CC(O)(Cn1cncn1)c1ccc(Cl)cc1Cl (single isomer, unassigned) [4A]",> 1500,–,–,–,–,–,9.2 (1.2) days,–,–,–,–
"CCC(CC)[S+]([O-])CC(O)(Cn1cncn1)c1ccc(Cl)cc1Cl (single isomer, unassigned) [5A]",> 2000,–,–,–,–,–,8.9 (1.2) days,–,–,–,–
"CCC(C)(C)[S+]([O-])CC(O)(Cn1cncn1)c1ccc(Cl)cc1Cl (stereo not drawn) [Compound No. 2A, 2-(2,4-dichlorophenyl)-3-tert-pentylsulfinyl-1-(1,2,4-triazol-1-yl)propan-2-ol]",1830,–,–,–,–,–,9.7 (1.2) days,70,311000,90,743000
"CS(=O)(=O)CC(O)(Cn1cncn1)c1ccc(Cl)cc1Cl (stereo not drawn) [I, reference compound]",770,1.30,1.50,1.70,1.85,1.90,9.6 (1.2) days,60,233000,80,674000
"CCC(C)(C)S(=O)(=O)CC(O)(Cn1cncn1)c1ccc(Cl)cc1Cl (stereo not drawn) [II, reference compound]",–,–,–,–,–,–,1.4 (1.0) days,–,–,–,–
"CC(=O)N1CCN(c2ccc(OCC3COC(Cn4ccnc4)(c4ccc(Cl)cc4Cl)O3)cc2)CC1 (stereo not drawn) [Ketoconazole, reference compound]",1100,–,–,–,–,–,4.8 (0.8) days,–,–,–,–

# — EP0140154A2, “1,2,4-Triazolylpropanols, and their production and use” (SUMITOMO CHEMICAL COMPANY, LIMITED, priority 1983, dated 1985)
